Consider six compounds from patent US9440957B2, “Compounds and compositions for modulating EGFR Activity” (Novartis AG, priority 2012, dated 2016).

One assay has as its target H3255 (EGFR L858R) (Homo sapiens, UniProt P00533, L858R). As to the kind of experiment: EGFR target modulation in H3255 cell line (phospho-EGFR Y1173 ELISA). The class given is cell-based. Summed up: (§1)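 Phospho-EGFR Y1173 levels were measured by chemiluminescent capture ELISA in lysates of cells exposed to compound for 3 hours at 37 °C. Inhibition was normalised to EGF-stimulated control cells taken as maximal response, and IC50 values were obtained by non-linear curve fitting.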

The target in assay [1] is human EGFR WT (NIH/3T3 cells, EGF-induced) (Homo sapiens, UniProt P00533). As to the kind of experiment: EGFR target modulation in engineered NIH/3T3 cell lines (phospho-EGFR Y1068 AlphaLISA), EGFR WT. In kind it is cell-based. The note with it: engineered NIH/3T3 cells, read-out: NIH3T3 IC50 (μM) EGFR (WT). In outline: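 Read-out is phospho-Y1068 AlphaLISA on cell lysates, with anti-total EGFR at 1 nM final equilibrated 1 h at room temperature. Cells were dosed 3 h with a 12-point 1:3 series starting from a 10 μM stock. Only the WT line received 50 ng/ml EGF for 5 min.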

Another assay deals with HEKn (EGFR WT) (Homo sapiens, UniProt P00533). Briefly: EGFR target modulation in HEKn (EGFR-WT) cell line (phospho-EGFR Y1173 ELISA). The class given is cell-based. The note with it: value outside parentheses. In outline:
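Primary neonatal human keratinocytes (EGFR WT) were exposed to serially diluted compounds for 3 h, then lysed on ice. Phospho-EGFR Y1173 was measured by chemiluminescent sandwich ELISA using anti-EGFR capture.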

The target of a further assay is H1975 (EGFR L858/T790M) (Homo sapiens, UniProt P00533, L858R/T790M). As to the kind of experiment: EGFR target modulation in H1975 cell line (phospho-EGFR Y1173 ELISA). In kind it is cell-based. Summed up: as §1
A further assay addresses T1, EGFR(L858R/T790M) (Homo sapiens, UniProt P00533, L858R/T790M).
T1 construct: purchased from Carna (GST-a.a. 669-1210)
As to the kind of experiment: EGFR biochemical assay (HTRF), IC50 determinations. In outline:
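HTRF kinase reaction with biotin-TK peptide at room temperature, quenched with EDTA at 60 min and detected with PT66K/SAXL after 1 h. Without preincubation, enzyme starts the reaction with compound, ATP and peptide present. With preincubation, compound, enzyme and peptide sit at room temperature for a set time before ATP is added.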

[2] abbreviates: EGFR (L858R/T790M) with 90 min pre-incubation, read-out: IC50 (μM) Column B.
Setting [3] is: EGFR (L858R/T790M) with no pre-incubation, read-out: IC50 (μM) Column A.

Read-outs that look alike come from different tables or passages of the source.

Chain of H3255 (EGFR L858R) (P00533 25-1210 L858R): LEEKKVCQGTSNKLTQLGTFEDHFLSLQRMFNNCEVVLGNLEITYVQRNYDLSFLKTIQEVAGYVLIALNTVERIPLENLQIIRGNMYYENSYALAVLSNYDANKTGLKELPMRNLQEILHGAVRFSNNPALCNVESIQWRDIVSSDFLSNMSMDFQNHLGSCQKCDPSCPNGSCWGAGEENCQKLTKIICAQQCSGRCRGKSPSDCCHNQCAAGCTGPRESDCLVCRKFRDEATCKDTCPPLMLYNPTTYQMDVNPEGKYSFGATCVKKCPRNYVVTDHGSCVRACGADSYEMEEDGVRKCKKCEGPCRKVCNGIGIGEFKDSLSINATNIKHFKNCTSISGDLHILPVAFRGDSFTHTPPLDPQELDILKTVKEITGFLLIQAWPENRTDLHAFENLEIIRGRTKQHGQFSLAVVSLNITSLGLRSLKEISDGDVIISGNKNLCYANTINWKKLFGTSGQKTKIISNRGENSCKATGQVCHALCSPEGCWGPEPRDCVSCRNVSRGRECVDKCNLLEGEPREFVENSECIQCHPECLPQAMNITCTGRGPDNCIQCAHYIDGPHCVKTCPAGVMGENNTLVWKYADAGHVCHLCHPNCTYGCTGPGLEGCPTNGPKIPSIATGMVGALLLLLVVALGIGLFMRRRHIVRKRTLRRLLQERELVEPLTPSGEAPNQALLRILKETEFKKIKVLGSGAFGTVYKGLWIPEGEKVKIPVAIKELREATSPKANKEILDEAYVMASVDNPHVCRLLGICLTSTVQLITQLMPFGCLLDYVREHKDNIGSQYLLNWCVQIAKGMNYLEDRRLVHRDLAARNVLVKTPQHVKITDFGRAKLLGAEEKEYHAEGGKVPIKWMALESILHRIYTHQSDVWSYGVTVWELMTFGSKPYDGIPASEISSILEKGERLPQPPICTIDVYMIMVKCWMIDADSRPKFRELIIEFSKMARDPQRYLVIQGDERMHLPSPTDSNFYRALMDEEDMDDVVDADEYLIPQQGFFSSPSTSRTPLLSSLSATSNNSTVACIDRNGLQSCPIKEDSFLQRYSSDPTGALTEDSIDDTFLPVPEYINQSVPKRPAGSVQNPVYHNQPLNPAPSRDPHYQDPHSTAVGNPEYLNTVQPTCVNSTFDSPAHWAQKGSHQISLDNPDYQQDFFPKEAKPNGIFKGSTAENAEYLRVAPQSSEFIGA
Chain of human EGFR WT (NIH/3T3 cells, EGF-induced) (P00533 25-1210): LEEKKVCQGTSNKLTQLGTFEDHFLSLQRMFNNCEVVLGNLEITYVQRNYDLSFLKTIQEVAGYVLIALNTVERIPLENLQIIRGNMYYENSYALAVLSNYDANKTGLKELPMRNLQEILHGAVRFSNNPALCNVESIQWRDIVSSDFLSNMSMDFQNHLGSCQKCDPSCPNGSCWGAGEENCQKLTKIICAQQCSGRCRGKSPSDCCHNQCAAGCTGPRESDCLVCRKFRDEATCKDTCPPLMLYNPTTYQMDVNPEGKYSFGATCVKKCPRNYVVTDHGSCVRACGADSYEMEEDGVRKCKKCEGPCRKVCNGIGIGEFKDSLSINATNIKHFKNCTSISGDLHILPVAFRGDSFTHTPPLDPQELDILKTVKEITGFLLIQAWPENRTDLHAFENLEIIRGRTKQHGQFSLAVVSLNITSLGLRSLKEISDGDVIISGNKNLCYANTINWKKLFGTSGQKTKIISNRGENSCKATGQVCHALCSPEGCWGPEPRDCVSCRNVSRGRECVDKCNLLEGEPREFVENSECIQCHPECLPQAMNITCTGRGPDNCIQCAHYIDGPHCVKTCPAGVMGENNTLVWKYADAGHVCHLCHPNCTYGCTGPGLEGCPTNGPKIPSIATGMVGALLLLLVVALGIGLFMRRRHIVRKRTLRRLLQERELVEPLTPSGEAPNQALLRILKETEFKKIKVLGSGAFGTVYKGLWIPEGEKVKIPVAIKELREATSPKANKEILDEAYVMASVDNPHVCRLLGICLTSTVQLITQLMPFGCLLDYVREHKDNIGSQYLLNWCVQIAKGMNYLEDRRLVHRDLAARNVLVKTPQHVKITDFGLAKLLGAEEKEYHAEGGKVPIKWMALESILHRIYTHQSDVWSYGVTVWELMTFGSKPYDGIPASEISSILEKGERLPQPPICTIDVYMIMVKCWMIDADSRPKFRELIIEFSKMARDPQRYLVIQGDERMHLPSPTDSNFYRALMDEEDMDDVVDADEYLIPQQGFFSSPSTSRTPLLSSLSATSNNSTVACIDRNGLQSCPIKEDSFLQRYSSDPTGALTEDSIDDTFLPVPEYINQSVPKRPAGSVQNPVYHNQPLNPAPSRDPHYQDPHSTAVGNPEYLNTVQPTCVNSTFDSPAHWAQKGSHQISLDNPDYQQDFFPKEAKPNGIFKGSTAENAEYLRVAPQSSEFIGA
Chain of HEKn (EGFR WT) (P00533 25-1210): as above
T1 sequence (P00533 669-1210 T790M/L858R): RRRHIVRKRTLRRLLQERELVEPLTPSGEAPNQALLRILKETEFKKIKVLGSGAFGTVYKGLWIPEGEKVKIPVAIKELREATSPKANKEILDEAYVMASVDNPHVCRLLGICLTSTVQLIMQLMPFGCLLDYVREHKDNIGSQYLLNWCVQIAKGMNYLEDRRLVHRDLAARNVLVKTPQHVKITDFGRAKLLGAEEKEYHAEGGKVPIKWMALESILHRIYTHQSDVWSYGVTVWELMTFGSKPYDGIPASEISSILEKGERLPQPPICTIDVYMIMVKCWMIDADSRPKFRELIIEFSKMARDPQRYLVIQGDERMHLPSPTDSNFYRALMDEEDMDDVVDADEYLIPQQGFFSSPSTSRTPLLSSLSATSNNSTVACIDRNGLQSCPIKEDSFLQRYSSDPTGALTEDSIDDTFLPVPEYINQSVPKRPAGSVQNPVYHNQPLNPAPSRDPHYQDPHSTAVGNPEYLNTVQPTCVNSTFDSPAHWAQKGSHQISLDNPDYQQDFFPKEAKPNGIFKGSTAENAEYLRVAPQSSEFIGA

For the compound `C=CC(=O)N1CCCC[C@@H](n2c(NC(=O)c3ccnc(C)c3)nc3cc(CN4CC[C@H](F)C4)cc(C)c32)C1` [Example 17-147], the IC50 was 2 nM at H3255 (EGFR L858R); 0.025 µM in assay [1]; 79 nM on HEKn (EGFR WT); < 1 nM at H1975 (EGFR L858/T790M); < 0.001 µM at EGFR(L858R/T790M) (setting [2]); 0.002 µM at EGFR(L858R/T790M) (setting [3]).
As to `C=CC(=O)N1CCCC[C@@H](n2c(NC(=O)c3ccnc(C)c3)nc3cc(CN4CC[C@H](OC)C4)cc(C)c32)C1` [Example 17-149], the 50% inhibitory concentration (IC50) on H3255 (EGFR L858R) is 2 nM; in assay [1], 0.015 µM; on HEKn (EGFR WT), 76 nM; at H1975 (EGFR L858/T790M) it was < 1 nM; at EGFR(L858R/T790M) (setting [2]), < 0.001 µM; on EGFR(L858R/T790M) (setting [3]), 0.002 µM.
As to `C=CC(=O)N1CCCC[C@@H](n2c(NC(=O)c3ccnc(C)c3)nc3cc(CN4CC(F)C4)cc(C)c32)C1` [Example 17-152], the IC50 against H3255 (EGFR L858R) was 2 nM; in assay [1], 0.032 µM; at HEKn (EGFR WT) it was 112 nM; against H1975 (EGFR L858/T790M) it was 1 nM; on EGFR(L858R/T790M) (setting [2]), < 0.001 µM; on EGFR(L858R/T790M) (setting [3]), 0.002 µM.
For the compound `C=CC(=O)N1CCCC[C@@H](n2c(NC(=O)c3ccnc(C)c3)nc3cc(CN4CC[C@@H](F)C4)cc(C)c32)C1` [Example 17-148], the half-inhibitory concentration (IC50) against H3255 (EGFR L858R) is 2 nM; in assay [1], 0.083 µM; at HEKn (EGFR WT), 77 nM; against H1975 (EGFR L858/T790M), 1 nM; on EGFR(L858R/T790M) (setting [2]), < 0.001 µM; at EGFR(L858R/T790M) (setting [3]), 0.002 µM.
With `C=CC(=O)N1CCCC[C@@H](n2c(NC(=O)c3ccnc(C)c3)nc3cc(CN4CC(OC)C4)cc(C)c32)C1` [Example 17-154], the IC50 at H3255 (EGFR L858R) is 2 nM; in assay [1] it was 0.01 µM; at HEKn (EGFR WT), 79 nM; at H1975 (EGFR L858/T790M) it was < 1 nM; at EGFR(L858R/T790M) (setting [2]), < 0.001 µM; on EGFR(L858R/T790M) (setting [3]) it was 0.002 µM.
Consider `C=CC(=O)N1CCCC[C@@H](n2c(NC(=O)c3ccnc(C)c3)nc3cc(CN4CC[C@@H](OC)C4)cc(C)c32)C1` [Example 17-150], for which the IC50 was 3 nM at H3255 (EGFR L858R); 0.042 µM in assay [1]; 129 nM at HEKn (EGFR WT); 2 nM on H1975 (EGFR L858/T790M); < 0.001 µM at EGFR(L858R/T790M) (setting [2]); 0.003 µM at EGFR(L858R/T790M) (setting [3]).
